Here are results for 3 compounds from patent US20110288036A1, “Methods for Treating or Preventing Vascular Graft Failure” (priority 2010, published 2011).

In one test the test system is MK2. The settings on record: known small molecule inhibitor of MK2; ATP competitive; cited from earlier work.
Test [1] deals with immortalized human pleural mesothelial cells (ATCC CRL-9444). The test is described as follows: IL-6 ELISA in TNF-α-stimulated mesothelial cells. In kind it is cell-based. The method, then:
Expression of inflammatory cytokines was induced by applying 1 or 10 ng/ml of TNF-α to cultured mesothelial cells. Briefly, immortalized human pleural mesothelial cells (ATCC CRL-9444) were grown in Medium199 with Earle's BSS, 0.75 mM L-glutamine (Mediatech Inc., Manassas, Va.), 1.25 g/l sodium bicarbonate (Sigma), 3.3 nM epidermal growth factor (EGF) (MBL International, Woburn, Mass.), 40 nM hydrocortisone (Sigma), 870 nM insulin (MBL International), 20 mM HEPES (Sigma), trace elements mixture B (Mediatech Inc., Waltham, Mass.), 10% fetal bovine serum (FBS) (Hyclone), and 1% penicillin/streptomycin (Mediatech Inc., Waltham, Mass.). […] Human mesothelial cells were treated with two different concentrations (1 and 10 ng/mL) of TNF-α for 2, 6, 12, and 24 hours (data not shown). […] Without TNF-α stimulation, mesothelial cells made negligible amounts of IL-6. […] In subsequent experiments designed to determine whether the MMI-0100 peptide ([…]; SEQ ID NO: 1) could reduce TNF-α induced IL-6 expression, both 1 and 10 ng/mL of TNF-α were selected as stimuli. 10 ng/mL of TNF-α is regarded as more physiologically relevant for mesothelial cells.
Prior to cytokine and/or inhibitor treatment, cells were allowed to acclimate in serum-free media consisting of only Medium199 with Earle's BSS, 0.75 mM L-glutamine, 1.25 g/l sodium bicarbonate, 20 mM HEPES, trace elements mixture B (Mediatech Inc., Waltham, Mass.), and 1% penicillin/streptomycin (Mediatech Inc., Waltham, Mass.) for 24 hours. […] Average concentration of IL-6 (pg/ml per 10^5 cells) at each time was determined by cytokine-specific ELISA.

For test [2], the system named is human saphenous vein (HSV). The test is described as follows: Muscle bath: sodium nitroprusside-induced relaxation of human saphenous vein. In kind it is cell-based. The settings on record: 50 or 100 μM pretreatment; data not shown. The method, then: De-identified, discarded segments of human saphenous vein (HSV) were collected from consented patients undergoing coronary artery or peripheral vascular bypass surgeries. HSV segments were stored in a saline solution until the end of the surgical procedure, at which time they were placed in cold transplant harvest buffer (100 mM potassium lactobionate, 25 mM KH2PO4, 5 mM MgSO4, 30 mM Raffinose, 5 mM Adenosine, 3 mM Glutathione, 1 mM Allopurinol, 50 g/L Hydroxyethyl starch, pH 7.4). The vessels were used within 24 hours of harvest. Using sterile technique, HSV segments were transferred to a 60-mm Petri dish under a sterile hood. The edges (0.5 mm) of each segment were removed with a blade and excess adventitial tissue and fat removed with minimal manipulation. HSV segments were cut into consecutive rings of approximately 1.0 mm in width to be utilized for organ culture or muscle bath experiments. Two rings from each segment were immediately fixed in 10% formalin at 37° C. for 30 min to obtain pre-culture intimal thickening measurements.
In preparation for testing vein segment functional viability, HSV rings were weighed and their lengths recorded. To focus on smooth muscle responses, the endothelium was mechanically denuded by rolling the luminal surface of each ring at the tip of a fine vascular forceps before suspension in a muscle bath containing a bicarbonate buffer (120 mM NaCl, 4.7 mM KCl, 1.0 mM MgSO4, 1.0 mM NaH2PO4, 10 mM glucose, 1.5 mM CaCl2, and 25 mM […], pH 7.4) equilibrated with 95% O2 and 5% CO2 at 37° C. The rings were stretched and the length progressively adjusted until maximal tension was obtained. […] Rings were maintained at a resting tension of 1 g, which produces maximal responses to contractile agonists as previously determined, and equilibrated for 2 hours in buffer. […]
HSV rings were first contracted with 110 mM KCl (with equimolar replacement of NaCl in bicarbonate buffer) and the generated force was measured. […] Rings were relaxed with a cumulative log dose of sodium nitroprusside (SNP), a nitric oxide donor, and the force generated was recorded. […] Rings were then incubated with either buffer alone or buffer plus 100 μM of MMI-0100 ([…] (SEQ ID NO: 1)) for 2 hours, followed by treatment with the same doses of PE and SNP, and the forces generated again recorded. Measured force was normalized for ring weight and length and percent relaxation was calculated; force generated with 10^−6 M of PE was set as 0% relaxation.
The enhancing effect of MMI-0100 ([…]; SEQ ID NO: 1) on smooth muscle relaxation was examined by pre-treating harvested human saphenous vein (HSV) with MMI-0100 ([…]; SEQ ID NO: 1) before SNP treatment. […] Percentage of relaxation at 0, 0.01, 0.1, and 1.0 μM of SNP was measured. […]

The subject of test [3] is Ca2+/calmodulin-dependent protein kinase II (CaMKII). Particulars: cited from earlier work.
The subject of the next test is PKA. Particulars: AIP 1 μM; cited from earlier work.
In a further test the test system is PKC. The settings on record: AIP 1 μM; cited from earlier work.
For another test, the target named is CaMKIV (Homo sapiens, UniProt Q16566). Particulars: AIP 1 μM; cited from earlier work.
Chain of CaMKIV (Q16566 whole entry, species assumed): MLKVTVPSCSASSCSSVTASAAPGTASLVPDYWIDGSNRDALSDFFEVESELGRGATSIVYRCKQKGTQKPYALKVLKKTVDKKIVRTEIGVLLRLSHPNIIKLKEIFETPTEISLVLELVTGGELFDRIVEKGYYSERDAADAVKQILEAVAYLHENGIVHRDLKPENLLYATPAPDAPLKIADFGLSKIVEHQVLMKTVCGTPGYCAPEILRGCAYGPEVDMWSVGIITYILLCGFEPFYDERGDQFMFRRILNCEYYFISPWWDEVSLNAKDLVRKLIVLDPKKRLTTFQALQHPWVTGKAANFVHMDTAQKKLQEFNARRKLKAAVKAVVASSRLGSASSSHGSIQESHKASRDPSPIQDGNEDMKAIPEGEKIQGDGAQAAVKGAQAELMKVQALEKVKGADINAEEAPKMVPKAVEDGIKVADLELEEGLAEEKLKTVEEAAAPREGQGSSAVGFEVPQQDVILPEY

For the compound `CC(=O)c1c(O)c(C)c(O)c(Cc2c(O)c3c(c(C(=O)/C=C/c4ccccc4)c2O)OC(C)(C)C=C3)c1O` [Rottlerin, reference compound], in the test on MK2, the IC50 was 5000 nM. The IL-6 expression entry is “significantly increased IL-6 expression above that induced by TNF-α alone” in test [1] (TNF-α 1 ng/mL, 6 hrs); “ineffective in reducing IL-6 expression” in test [1] (TNF-α 1 ng/mL, MMI-0100 1000 or 3000 μM, 6, 12, 24 hours); “reduced IL-6 expression only at a higher dose (1 μM) and only at twenty-four hours after treatment” in test [1] (TNF-α 10 ng/mL, 6, 12, 24 hours).
Turning to “YARAAARQARA (mammal) [PTD peptide, control peptide (transduction domain, PTD peptide), reference compound]”, the “relaxation response vs untreated control” value in test [2] is “no significant difference in relaxation response”.
On to “autocamtide-2 related inhibitory peptide [AIP]”, for which the CaMKII activity entry in test [3] (AIP 1 μM) was “inhibited completely”. Also, the IC50 in test [3] is 100 nM. For the same compound, in the test with PKA, the PKA activity result was “not affected”. Moreover, in the test on PKC, the PKC activity entry is recorded as “not affected”. In addition, the CaMKIV activity entry at CaMKIV is “not affected”.
